Legend:
[1] = test system: LX-2 cells; assay: ATP secretion from LX-2 cells; type: cell-based, human
Method: Cells of the immortalized human hepatic stellate cell line LX-2 (manufactured by Merck) was cultured in Dulbecco's modified Eagle's medium (DMEM, 4500 mg/l Glucose, D5796, manufactured by Sigma-Aldrich) supplemented with inactivated 2% fetal bovine serum (FBS), 10 IU/ml penicillin, and 10 IU/ml streptomycin in a T25 or T75 flask at 37° C. in 5% CO2.
LX-2 cells (2×10^6 cells per well) were seeded in a collagen-coated 6-well culture dish containing Dulbecco's modified Eagle's medium (manufactured by Sigma-Aldrich) supplemented with 10 IU/ml penicillin, […] 2% fetal bovine serum, and cultured in 5% CO2 at 37° C. After 3 days, the LX-2 cells were washed twice and preincubated in Krebs-Ringer buffer (10 mM HEPES-Tris, pH 7.4, 128 mM NaCl, 1.9 mM KCl, 1.2 mM KH2PO4, 1.3 mM MgSO4, 26 mM NaHCO3, 2.4 mM CaCl2, 10 mM glucose, 0.2% (w/v) bovine serum albumin) with or without 10 μM clodronate. The LX-2 cells were then stimulated with Krebs-Ringer buffer supplemented with ionomycin (manufactured by Cayman) regardless of whether clodronate was present or not. For the stimulation, 1 mM EGTA (manufactured by Dojindo) or 10 μM serotonin (5-HT, manufactured by Sigma-Aldrich) was used. The ATP concentration in the culture supernatant was measured in the same manner as in Example 6.
For an siRNA experiment, a TriFECTa (trademark) RNAi Kit (manufactured by Integrated DNA Technologies) was used. A scramble RNA (scRNA) as a control siRNA, or a VNUT-specific siRNA, was incubated with Lipofectamine 3000 reagent (manufactured by Invitrogen) in OptiMEM reduced-serum medium (#31985070, manufactured by Gibco) at room temperature for 15 minutes, and then added directly to the cultured cells. The LX-2 cells as the transfection mixture were plated, and then cultured for 48 hours. The base sequences of VNUT siRNA forward and VNUT siRNA reverse, used for the above kit, are shown in SEQ ID NOs: 1 and 2, respectively. A positive control for an endogenous gene (#51-01-08-02) and a negative control (#51-01-14-03) were used.

[2] = test system: chromaffin granule membrane; assay: ATP transport (uptake of radiolabeled ATP) in chromaffin granule membrane vesicles; type: biochemical, cattle; settings: role: inhibitor, 1 mM 3H-ATP
Method: Chromaffin granule membranes were prepared from adrenal glands collected from slaughtered cattle according to Reference A (Nathan Nelson et al., 1988, Chromaffin Granule Proton Pump, Methods in Enzymology, 157, 619-633). Chromaffin granule membranes prepared by sucrose density gradient centrifugation were suspended in 2 ml of SME buffer (20 mM MOPS-tris (pH 7.0), 0.3 M sucrose, 5 mM EDTA, 10 μg/ml leupeptin, and 10 μg/ml pepstatin)+25% glycerol, and the resulting suspension was aliquoted and stored at −80° C. Under these conditions, the ATP transport activity, the V-ATPase activity, and the catecholamine transport activity remain fully active for at least one year.
An ATP transport inhibition experiment for the chromaffin granule membrane was carried out according to Reference B (Yoshinori Moriyama et al., 2022, Is the vesicular nucleotide transporter a molecular target of eicosapentaenoic acid?, Frontiers in Pharmacology, 103389). About 20 μg of chromaffin granule membranes were added to 0.5 ml of measurement buffer (20 mM MOPS-tris (pH 7.0), 0.3 M sucrose, 5 mM potassium chloride, 5 mM magnesium acetate, 5 mM creatine phosphate, 10 units of creatine kinase, and 1 mM 3[H]-ATP [15 KBq/assay]), followed by incubation at 30° C. for 1 hour. Through a Millipore MCE membrane filter with a pore size […], 0.2 ml of the reaction liquid was filtered by suction. Thereafter, the filter was washed with 10 ml of 20 mM MOPS-tris (pH 7.0), 0.3 M sucrose, 5 mM potassium chloride, and 5 mM magnesium acetate, and dissolved in 10 ml of Clear-sol II (manufactured by Nacalai Tesque, Inc.). The radioactivity was then measured using a liquid scintillation counter (N=3).
The reaction was initiated by adding 50 mM ^3[H]-ATP to a final concentration of 1 mM. The 50 mM ^3[H]-ATP was prepared by mixing an ATP-tris solution (manufactured by Sigma-Aldrich) with [2,8-^3H]adenosine triphosphate tetrasodium salt (26.0 Ci/mmol) (manufactured by New England Nuclear). PEP was used as a test reagent, and pyruvic acid was used as a negative control. Five minutes before the addition of ATP, PEP or pyruvic acid, as a solution in 20 mM MOPS-tris (pH 7.0), 0.3 M sucrose, 5 mM potassium chloride, and 5 mM magnesium acetate, was added to the measurement liquid to a final PEP concentration of 0.02, 0.05, 0.1, 0.2, 0.4, or 1 mM, or to a final pyruvic acid concentration of 0.5 or 1 mM.
Chromaffin granule membrane vesicles were prepared in the same manner as in Example 5, and uptake of radiolabeled ATP into the vesicles was measured. Transport activity of catecholamine (dopamine) and ATP-dependent proton transport by V-ATPase were also measured in the same manner as in Example 5.

[3] = test system: human epidermal keratinocytes; assay: ATP secretion from human epidermal keratinocytes promoted by ionomycin; type: cell-based; settings: 5 μM ionomycin as stimulant, keratinocytes
Method: Human epidermal keratinocytes (Cryopreserved HEK, Lot 1758, Cell Applications Inc.) were cultured using an Epivita Keratinocyte Growth Medium Kit according to the manufacturer's instructions. The procedure was as follows. A supplement medium was added to a hydrocortisone-containing basal medium included in the medium preparation kit to prepare a complete medium. The medium in the dish was removed by aspiration. The cells were washed with 5 ml of BSS (Gbco), and then the BSS was removed by aspiration. After addition of 5 to 6 ml of trypsin/EDTA solution (Gbco), the dish was incubated at 37° C. for 2 minutes. After addition of 5 ml of trypsin neutralization solution, the resulting cell suspension was transferred into two 15-ml Falcon tubes, and centrifuged at 200×g for 5 minutes. The supernatant was removed by aspiration, and the pelleted cell cluster was suspended in 2 ml of the medium at 4.5×10^5 cells/ml. An aliquot of the resulting cell suspension was cryopreserved, while another aliquot was cultured and subjected to measurement.
ATP secretion by human epidermal keratinocytes (hereinafter referred to as “keratinocytes”) was measured. Regarding control solutions, Krebs-Ringer HEPES supplemented with 0.2% BSA and 25 mM glucose (hereinafter also referred to as “Krebs/Iono(−)”) was used as a negative control, and a solution prepared by adding 5 μM ionomycin to this solution (hereinafter also referred to as “Krebs/Iono(+)”) was used as a positive control for ATP secretion. Ionomycin is a Ca^2+ ionophore. Addition of ionomycin to cells is known to promote influx of extracellular Ca^2+ into the cells to increase the intracellular Ca^2+ concentration, resulting in enhancement of ATP secretion. Test solutions were prepared by adding clodronate to Krebs/Iono(−) or Krebs/Iono(+) to a final concentration of 0.1 μM (hereinafter also referred to as “Clo/Iono(−)” or “Clo/Iono(+)”, respectively) (N=3).
Keratinocytes were cultured at 2.5×10^4 cells/well in a 24-well plate at 37° C. in 5% CO2 for 4 days. The medium was removed by aspiration, replaced with Krebs/Iono(−) or Clo/Iono(−), and incubated at 37° C. for 6 hours. These solutions were then removed by aspiration, and the content of each well incubated with Krebs/Iono(−) was replaced with 300 μl of a control solution (Krebs/Iono(−) or Krebs/Iono(+)), while the content of each well incubated with Clo/Iono(−) was replaced with 300 μl of a test solution (Clo/Iono(−) or Clo/Iono(+)). After further incubation at 37° C. for 20 minutes, 200 μl of the supernatant was collected. The collected supernatant was immediately treated on a heat block at 95° C. for 10 minutes, to inactivate ectonucleotidase. ATP in the supernatant was quantified using a Dojindo ATP assay kit−Luminescence (manufactured by Dojindo Laboratories).
Keratinocytes were cultured in the same manner as in Example 1, and ATP secretion from the keratinocytes was measured. Krebs/Iono(−), or a solution prepared by adding 10 μM imeglimin, 0.1 μM eicosapentaenoic acid (EPA), 1 μM EPA, or 10 μM clodronate to Krebs/Iono(−) was used (N=4).
After culturing keratinocytes, the medium was removed by aspiration, and replaced with Krebs/Iono(−), or Krebs/Iono(−) supplemented with 10 μM imeglimin, 0.1 μM EPA, 1 μM EPA, or 10 μM clodronate, followed by incubation for 6 hours. Subsequently, the solution was replaced with either a control solution (Krebs/Iono(−) or Krebs/Iono(+)) or a test solution (Krebs/Iono(+) supplemented with 10 μM imeglimin, 0.1 μM EPA, 1 μM EPA, or 10 μM clodronate), followed by incubation at 37° C. for 20 minutes and then collection of 200 μl of the supernatant. The collected supernatant was immediately treated on a heat block at 95° C. for 10 minutes to inactivate ectonucleotidase. ATP in the supernatant was quantified using a Dojindo ATP assay kit—Luminescence (manufactured by Dojindo Laboratories). […]

[4] = test system: mouse auricle; assay: Imiquimod-induced psoriasis model, comparison with an anti-TNFα antibody (Example 19); type: in vivo; settings: imeglimin 40 mg/kg oral daily or infliximab 100 μg/mouse i.v. Days 1, 3, 5
Method: The dorsal hair of mice was shaved and depilated (Day 0). To each of the left auricle and the depilated back of each mouse, 62.5 mg of 5% imiquimod cream (Beselna Cream 5%) was applied once daily a total of seven times (Days 1 to 7) in accordance with Example 18, to induce imiquimod-induced psoriasis (IMQ group). In the IMQ+IMG group, mice received oral administration of imeglimin (40 mg/kg) once daily (Day 1 to 7) after the imiquimod application. […] Thickness of the auricle was measured, and the degrees of erythema, desquamation, and infiltration in the affected area were rated on Days 1, 3, 5, 7, and 8 according to the PASI scoring of the DermNET Dermatology Resource (none: 0, mild: 1, moderate: 2, severe: 3, and very severe: 4). The resulting values were used to calculate the PASI score.
Further, for an auricle excised on Day 8, immunohistochemical staining was performed in the same manner as in Example 18, and auricular sections were imaged using a fluorescence microscope (BZ-X710; manufactured by Keyence Corporation).

NCCc1c[nH]c2ccc(O)cc12 [5-HT, serotonin]
ATP secretion from the LX-2 cells ([1]; 10 μM serotonin (5-HT) (FIG. 25)): promoted ATP secretion

O=C(O)CN(CCOCCOCCN(CC(=O)O)CC(=O)O)CC(=O)O [EGTA]
ionomycin-induced ATP secretion ([1]; 1 mM EGTA, chelating of Ca2+, N=6 (FIG. 21)): strongly inhibited

C[C@H](O)C(=O)O [L-lactic acid]
inhibitory activity on ATP transport [2]: no inhibitory activity was found

NC(=O)c1ccc[n+]([C@@H]2O[C@H](COP(=O)([O-])OP(=O)(O)OC[C@H]3O[C@@H](n4cnc5c(N)ncnc54)[C@H](O)[C@@H]3O)[C@@H](O)[C@H]2O)c1 [NAD+]
inhibitory activity on ATP transport [2]: no inhibitory activity was found

CC(=O)SCCNC(=O)CCNC(=O)[C@H](O)C(C)(C)COP(=O)(O)OP(=O)(O)OC[C@H]1O[C@@H](n2cnc3c(N)ncnc32)[C@H](O)[C@@H]1OP(=O)(O)O [acetyl-CoA]
inhibitory activity on ATP transport [2]: no inhibitory activity was found

O=C(O)CC(O)(CC(=O)O)C(=O)O [citric acid]
inhibitory activity on ATP transport [2]: no inhibitory activity was found

O=C(CO)[C@@H](O)[C@H](O)[C@H](O)COP(=O)(O)O [fructose-6-phosphate]
inhibitory activity on ATP transport [2]: no inhibitory activity was found

O=C[C@H](O)[C@@H](O)[C@H](O)[C@H](O)COP(=O)(O)O [glucose-6-phosphate]
inhibitory activity on ATP transport [2]: no inhibitory activity was found

C[C@H](CCC(=O)O)C[C@H](C)C[C@H](C)C(=O)/C=C(\O)[C@H](C)C[C@H](C)C/C=C/[C@@H](C)[C@@H](O)[C@@H](C)[C@@H](O)C[C@@H]1CC[C@@](C)([C@H]2CC[C@@](C)([C@@H](C)O)O2)O1 [ionomycin]
secretion of ATP by the LX-2 cells over time ([1]; ionomycin, N=3 (FIG. 20)): increased secretion of ATP
ATP secretion [3]: promotes ATP secretion

O=C(O)C[C@H](O)C(=O)O [malic acid]
inhibitory activity on ATP transport [2]: no inhibitory activity was found

O=C(O)CC(=O)C(=O)O [oxaloacetic acid]
inhibitory activity on ATP transport [2]: no inhibitory activity was found

CC(=O)C(=O)O [pyruvic acid]
inhibitory activity on ATP transport [2]: no inhibitory activity was found
inhibition of ATP transport ([2]; up to 1 mM pyruvic acid): did not inhibit ATP transport

infliximab: infliximab (manufactured by Nichi-Iko Pharmaceutical Co., Ltd.), an anti-TNFα antibody as an existing drug
erythema (excepted from the symptoms reduced) ([4]; N=5 (FIG. 38)): except erythema
typical psoriatic symptoms induced by imiquimod, except erythema (thickness, desquamation, infiltration, PASI score) ([4]; N=5 (FIGS. 37-41)): reduced
